Paper PMC5175396, “Cytotoxicity of Plumbagin, Rapanone and 12 other naturally occurring Quinones from Kenyan Flora towards human carcinoma cells” (BMC Pharmacology & Toxicology, 2016)
Like-named read-outs stand apart in the source and are kept apart here.

Assays:
[1] = system: DLD-1 colorectal adenocarcinoma cell lines; experiment: Neutral red (NR) uptake cytotoxicity assay, DLD-1; assay type: cell-based, human; settings: Homo sapiens, read-out: IC50 DLD-1
Description: (§1) Six human cancer cell lines and one normal cell line were used in this study. They included A549 human non-small cell lung cancer (NSCLC) cell line, obtained from the Institute for Fermentation, Osaka (IFO, Japan) and provided by Prof. Dr. Tansu Koparal (Anadolu University, Eskisehir, Turkey), SPC212 human mesothelioma cell line obtained from American Type Culture Collection (ATCC) and provided by Dr. Asuman Demiroğlu Zergeroğlu (Gebze Technical University, Kocaeli, Turkey), DLD-1 colorectal adenocarcinoma cell lines obtained from ATCC (CCL-221), Caco2 colorectal adenocarcinoma cells (ATCC, HTB-37) obtained from the ŞAP Institute of Turkey (Ankara), HepG2 hepatocarcinoma cells (ATCC, HB-8065) and MCF-7 breast adenocarcinoma cells (ATCC, HTB-22) were provided by Prof. Dr. Tansu Koparal (Anadolu University, Eskisehir, Turkey). The normal CRL2120 human skin fibroblasts were obtained from ATCC [CCD1094Sk (ATCC, CRL-2120)]. The cells were maintained as a monolayer in DMEM medium (Sigma-aldrich, Munich, Germany) medium supplemented with 10% fetal calf serum and 1% penicillin (100 U/mL)-streptomycin (100 μg/mL) in a humidified 5% CO2 atmosphere at 37 °C.
(§2) The cytotoxicity of samples was performed by NR uptake assay as previously described. This method is based on the ability of viable cells to incorporate and bind the supravital dye NR in the lysosomes. The procedure is cheaper and more sensitive than other cytotoxicity tests. […] Briefly, cells were detached by treatment with 0.25% trypsin/EDTA (Invitrogen) and an aliquot of 1 × 10^4 cells was placed in each well of a 96-well cell culture plate […]. The cells were allowed to attach overnight and subsequently treated with different concentrations of the 14 compounds. Each of the studied samples was immediately added in varying concentrations in additional 100 μL of culture medium to obtain a total volume of […]/well. After 72 h incubation in humidified 5% CO2 atmosphere at 37 °C, the medium was removed and 200 μL fresh medium containing 50 μg/mL NR was added to each well and incubation continued for an additional 3 h at 37 °C in 5% CO2 atmosphere. The dye medium was then removed and each well was then washed rapidly with 200 μL phosphate buffer saline (PBS) followed by addition of 200 μL of acetic acid-water-ethanol in water (1:49:50). The plates were kept for 15 min at room temperature to extract the dye and then shaken for a few minutes on a GFL 3012 shaker (Gesellschaft für Labortechnik mbH, Burgwedel, Germany). Absorbance was measured on ELx 808 Ultra Microplate Reader (Biotek) equipped with a 540 nm filter. Each assay was done at least three times, with three replicates each. The viability was evaluated based on a comparison with untreated cells. The IC50 values represent the sample’s concentrations required to inhibit 50% of cell proliferation and were calculated from a calibration curve by linear regression using Microsoft Excel.

[2] = system: SPC212 human mesothelioma cell line; experiment: Neutral red (NR) uptake cytotoxicity assay, SPC212; assay type: cell-based; settings: Homo sapiens, 72 h
Description: as §1, §2

[3] = system: Caco2 colorectal adenocarcinoma cells; experiment: Neutral red (NR) uptake cytotoxicity assay, Caco-2; assay type: cell-based, human; settings: Homo sapiens, Caco-2; neutral red assay, 72 h incubation
Description: as §1, §2

[4] = system: MCF-7 cells; experiment: Flow cytometry cell cycle analysis and detection of apoptotic cells; assay type: cell-based, human; settings: IC50, 72 h, non-treated cells 3.1%
Procedure: The cell-cycle analysis was performed by flow cytometry using BD cycletest^TM Plus DNA Kit Assay (BD Biosciences, San Jose, USA). The BD Cycletest™ Plus DNA kit provides a set of reagents for isolating and staining cell nuclei. Flow cytometric analysis of differentially stained cells is used to estimate the DNA index (DI) and cell-cycle phase distributions. Briefly, MCF-7 cells (3 mL, 1 × 10^5 cells/mL) were seeded into each well of 6-well plates and allowed to attach for 24 h. […] The untreated cells (control) were also included in the assay. They were further trypsinized and suspended in 1 mL PBS, then centrifuged at 400 g for 5 min at room temperature (RT). The cells were further processed according to the manufacturer protocol: addition of 250 μL of solution A (trypsin buffer), 10 min incubation at RT followed by the addition of 200 μL of solution B (trypsin inhibitor and RNAse buffer), 10 min incubation at RT followed by the addition of 200 μL of solution C (2–8 °C) (propidium iodide stain solution), 10 min on ice. The cells were further measured on a BD FACS Aria I Cell Sorter Flow Cytometer (Becton-Dickinson, Germany). For each sample, 10^4 cells were counted. For PI excitation, an argon-ion laser emitting at 488 nm was used. Cytographs were analyzed using BD FACSDiva™ Flow Cytometry Software Version 6.1.2 (Becton-Dickinson).

[5] = system: MCF-7 breast adenocarcinoma cells; experiment: Neutral red (NR) uptake cytotoxicity assay, MCF-7; assay type: cell-based, human; settings: for IC50: Homo sapiens, MCF7, 72 h, read-out: IC50 MCF-7
Description: as §1, §2

[6] = system: normal CRL2120 human skin fibroblasts; experiment: Neutral red (NR) uptake cytotoxicity assay, normal CRL2120 fibroblasts; assay type: cell-based; settings: Skin fibroblast, 72 h incubation
Description: as §1, §2

[7] = system: six tested cancer cell lines (A549, SPC212, DLD-1, Caco-2, MCF-7, HepG2); experiment: Neutral red uptake assay, statements over the six tested cancer cell lines; assay type: cell-based, human
Description: as §1, §2

[8] = system: HepG2 hepatocarcinoma cells; experiment: Neutral red (NR) uptake cytotoxicity assay, HepG2; assay type: cell-based, human; settings: for IC50: Homo sapiens, read-out: IC50 HepG2
Description: as §1, §2

[9] = system: MCF-7 cells; experiment: Measurement of reactive oxygen species (ROS), DCFH-DA; assay type: cell-based, human; settings: at IC50, 24 h
Procedure: This is a cell-based assay for measuring hydroxyl, peroxyl, or other reactive oxygen species activity within a cell. The assay employs the cell-permeable fluorogenic probe 2′,7′-dichlorodihydrofluorescin diacetate (DCFH-DA). DCFH-DA is diffused into cells and is deacetylated by cellular esterases to non-fluorescent 2′,7′-dichlorodihydrofluorescin (DCFH), which is rapidly oxidized to highly fluorescent 2′,7′-dichlorofluorescein (DCF) by ROS. […] After addition of 100 μL 1× DCFH-DA/DMEM solution to cells and incubation at 37 °C for 30–60 min, the fluorescence was measured using SpectraMax® M5 Microplate Reader (Molecular Devices, Biberach, Germany) at 480/530 nm. All experiments were performed at least in triplicate.

[10] = system: MCF-7 cells; experiment: Mitochondrial membrane potential (MMP) analysis, JC-1 staining, flow cytometry; assay type: cell-based, human; settings: IC50 (C3), 72 h, control 4.3%
Procedure: The MMP was analyzed in MCF-7 cells by 5,5′,6,6′-tetrachloro-1,1′,3,3′-tetraethylbenzimidazolylcarbocyanine iodide) (JC-1; Biomol, Hamburg, Germany) staining as previously reported. […] Subsequently, cells were measured in a BD FACS Aria I Cell Sorter Flow Cytometer (Becton-Dickinson, Germany). The JC-1 signal was measured at an excitation of 561 nm (150 mW) and detected using a 586/15 nm band-pass filter. The signal was analyzed at 640 nm excitation (40 mW) and detected using a 730/45 nm bandpass filter. Cytographs were analyzed using BD FACSDiva™ Flow Cytometry Software Version 6.1.2 (Becton-Dickinson). All experiments were performed at least in triplicate.

[11] = system: PF-382 leukemia T-cells, MiaPaCa-2 pancreatic cells, U87MG glioblastoma-astrocytoma cells, Colo-38 skin melanoma cells, HeLa and Caski cervical carcinoma cells; set-up: method as in PMID 21886765; settings: PF-382, MiaPaCa-2, U87MG, Colo-38, HeLa, read-out: IC50 against a panel of cancer cell lines; cited from earlier work
[12] = Neutral red (NR) uptake cytotoxicity assay, Caco-2; assay type: cell-based, human; settings: human; IC50 in CRL2120 normal fibroblasts divided by IC50 in Caco-2; read-out: selectivity index Caco-2 (converted)
Description: as §1, §2

[13] = system: A549 human non-small cell lung cancer (NSCLC) cell line; experiment: Neutral red (NR) uptake cytotoxicity assay, A549; assay type: cell-based; settings: Homo sapiens, A549, 72 h, neutral red assay, 72 h incubation
Description: as §1
as §2, with “lysosomes.” for “lysosomes. The procedure is cheaper and more sensitive than other cytotoxicity tests.”

tested cancer cell lines in which recordable IC50 values were obtained ([7]; out of six cancer cell lines) | SMILES | IC50 ([1]; DLD-1, 72 h) [µM] | IC50 ([2]; read-out: IC50 SPC#) [µM] | IC50 [3] [µM] | Sub-G0/G1 (apoptotic) cells, % of cells [4] [%] | IC50 [5] [µM] | IC50 [6] [µM] | IC50 ([7]; Homo sapiens, bound valid for all six cancer cell lines, neutral red assay) [µM] | IC50 ([8]; HepG2, 72 h) [µM] | increase in ROS levels as compared with non-treated cells [9] | MMP, gate P2 (loss / depletion of MMP) [10] [%] | IC50 [11] [µM] | IC50 ([1]; DLD-1, neutral red assay, 72 h incubation) [µM] | IC50 ([2]; neutral red assay, 72 h incubation, read-out: IC50 SPC212) [µM] | selectivity ratio at 72 h [12] | IC50 ([5]; neutral red assay, 72 h incubation) [µM] | selectivity index MCF-7 ([5]; IC50 in CRL2120 normal fibroblasts divided by IC50 in MCF-7) | IC50 ([8]; HepG2, neutral red assay, 72 h incubation) [µM] | selectivity index HepG2 ([8]; IC50 in CRL2120 normal fibroblasts divided by IC50 in HepG2) | IC50 [13] [µM]
 | COc1cccc2c1C(=O)c1c(O)c3c(c(O)c1C2=O)C[C@@](O)(C(=O)CO)C[C@@H]3O[C@H]1C[C@H](N)[C@H](O)[C@H](C)O1 [Doxorubicin, reference compound] | 0.37 ± 0.05 | 0.07 ± 0.01 | 0.72 ± 0.13 | 60 | 0.35 ± 0.05 | 0.59 ± 0.01 | < 100 | 0.18 ± 0.03 | more than 2 fold | 26 |  |  |  |  |  |  |  |  | 
 | CC(=O)c1cc2c(o1)C(=O)c1ccccc1C2=O [2-acetylfuro-1,4-naphthoquinone] |  |  |  |  |  |  |  |  |  |  | < 10 |  |  |  |  |  |  |  | 
5/6 | CCCCCCCC1=C(O)C(=O)C=C(O)C1=O [Compound 8, 2,5-dihydroxy-3-heptyl-2,5-cyclohexadiene-1,4-dione] |  |  | 63.9 ± 5.97 |  |  | 117 ± 1.22 |  |  |  |  |  | > 168 | < 10 | 2.27 | 38.8 ± 3.33 | 3.16 | 94.2 ± 2.7 | 1.16 | 108 ± 17.9
